{"source": "PubChem BioAssay (NCI)", "assay_in_all_cases": "DTP human tumour cell line panel, 48 h", "key": {"RXF 393 renal": {"system": "RXF 393 renal"}, "SNB-75 CNS": {"system": "SNB-75 CNS"}, "MDA-MB-435": {"system": "MDA-MB-435"}, "COLO 205 colon": {"system": "COLO 205 colon"}, "HOP-92 NSCLC": {"system": "HOP-92 NSCLC"}, "OVCAR-5 ovarian": {"system": "OVCAR-5 ovarian"}, "KM12 colon": {"system": "KM12 colon"}, "SNB-19 CNS": {"system": "SNB-19 CNS"}, "HCT-15 colon": {"system": "HCT-15 colon"}, "HT29 colon": {"system": "HT29 colon"}, "SR leukemia": {"system": "SR leukemia"}, "DU-145 prostate": {"system": "DU-145 prostate"}, "UO-31 renal": {"system": "UO-31 renal"}, "UACC-257 melanoma": {"system": "UACC-257 melanoma"}, "HCT-116 colon": {"system": "HCT-116 colon"}, "ACHN renal": {"system": "ACHN renal"}, "TK-10 renal": {"system": "TK-10 renal"}, "NCI-H460 lung": {"system": "NCI-H460 lung"}, "NCI/ADR-RES ovarian": {"system": "NCI/ADR-RES ovarian"}, "NCI-H522 lung": {"system": "NCI-H522 lung"}, "HOP-62 NSCLC": {"system": "HOP-62 NSCLC"}, "SN12C renal": {"system": "SN12C renal"}, "OVCAR-3 ovarian": {"system": "OVCAR-3 ovarian"}, "SF-268 CNS": {"system": "SF-268 CNS"}, "SF-295 CNS": {"system": "SF-295 CNS"}, "NCI-H23 lung": {"system": "NCI-H23 lung"}, "OVCAR-8 ovarian": {"system": "OVCAR-8 ovarian"}, "CCRF-CEM leukemia": {"system": "CCRF-CEM leukemia"}, "M14 melanoma": {"system": "M14 melanoma"}}, "note": "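Results reflect a 48-hour exposure of cells in 96-well plates to compound at five concentrations. The concentration for 50% growth inhibition is given as GI50. TGI denotes the concentration required for complete inhibition of growth.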", "data": [{"molecule": "Cn1c(=O)c(Oc2ccc(F)cc2)cc2cnc(NC3CCOCC3)nc21", "values": [{"measurement": "TGI", "setting": "RXF 393 renal", "result": "> 25", "unit": "µM"}, {"measurement": "GI50", "setting": "SNB-75 CNS", "result": "> 25", "unit": "µM"}, {"measurement": "TGI", "setting": "SNB-75 CNS", "result": "> 25", "unit": "µM"}, {"measurement": "GI50", "setting": "MDA-MB-435", "result": "> 25", "unit": "µM"}, {"measurement": "TGI", "setting": "MDA-MB-435", "result": "> 25", "unit": "µM"}, {"measurement": "GI50", "setting": "COLO 205 colon", "result": "> 25", "unit": "µM"}, {"measurement": "TGI", "setting": "COLO 205 colon", "result": "> 25", "unit": "µM"}, {"measurement": "GI50", "setting": "HOP-92 NSCLC", "result": 4.72, "unit": "µM"}, {"measurement": "TGI", "setting": "HOP-92 NSCLC", "result": "> 25", "unit": "µM"}, {"measurement": "GI50", "setting": "OVCAR-5 ovarian", "result": "> 25", "unit": "µM"}, {"measurement": "TGI", "setting": "OVCAR-5 ovarian", "result": "> 25", "unit": "µM"}, {"measurement": "GI50", "setting": "KM12 colon", "result": "> 25", "unit": "µM"}, {"measurement": "TGI", "setting": "KM12 colon", "result": "> 25", "unit": "µM"}, {"measurement": "GI50", "setting": "SNB-19 CNS", "result": "> 25", "unit": "µM"}, {"measurement": "TGI", "setting": "SNB-19 CNS", "result": "> 25", "unit": "µM"}, {"measurement": "GI50", "setting": "HCT-15 colon", "result": "> 25", "unit": "µM"}, {"measurement": "TGI", "setting": "HCT-15 colon", "result": "> 25", "unit": "µM"}, {"measurement": "GI50", "setting": "HT29 colon", "result": "> 25", "unit": "µM"}, {"measurement": "TGI", "setting": "HT29 colon", "result": "> 25", "unit": "µM"}, {"measurement": "GI50", "setting": "SR leukemia", "result": "> 25", "unit": "µM"}, {"measurement": "TGI", "setting": "SR leukemia", "result": "> 25", "unit": "µM"}, {"measurement": "GI50", "setting": "DU-145 prostate", "result": "> 25", "unit": "µM"}, {"measurement": "TGI", "setting": "DU-145 prostate", "result": "> 25", "unit": "µM"}, {"measurement": "GI50", "setting": "UO-31 renal", "result": "> 10.5", "unit": "µM"}, {"measurement": "TGI", "setting": "UO-31 renal", "result": "> 18.6", "unit": "µM"}, {"measurement": "GI50", "setting": "UACC-257 melanoma", "result": "> 25", "unit": "µM"}, {"measurement": "TGI", "setting": "UACC-257 melanoma", "result": "> 25", "unit": "µM"}, {"measurement": "GI50", "setting": "HCT-116 colon", "result": "> 25", "unit": "µM"}, {"measurement": "TGI", "setting": "HCT-116 colon", "result": "> 25", "unit": "µM"}, {"measurement": "GI50", "setting": "ACHN renal", "result": "> 25", "unit": "µM"}, {"measurement": "TGI", "setting": "ACHN renal", "result": "> 25", "unit": "µM"}, {"measurement": "GI50", "setting": "TK-10 renal", "result": "> 25", "unit": "µM"}, {"measurement": "TGI", "setting": "TK-10 renal", "result": "> 25", "unit": "µM"}, {"measurement": "GI50", "setting": "NCI-H460 lung", "result": "> 25", "unit": "µM"}, {"measurement": "TGI", "setting": "NCI-H460 lung", "result": "> 25", "unit": "µM"}, {"measurement": "GI50", "setting": "NCI/ADR-RES ovarian", "result": "> 25", "unit": "µM"}, {"measurement": "TGI", "setting": "NCI/ADR-RES ovarian", "result": "> 25", "unit": "µM"}, {"measurement": "GI50", "setting": "NCI-H522 lung", "result": "> 25", "unit": "µM"}, {"measurement": "TGI", "setting": "NCI-H522 lung", "result": "> 25", "unit": "µM"}, {"measurement": "GI50", "setting": "HOP-62 NSCLC", "result": "> 25", "unit": "µM"}, {"measurement": "TGI", "setting": "HOP-62 NSCLC", "result": "> 25", "unit": "µM"}, {"measurement": "GI50", "setting": "SN12C renal", "result": "> 25", "unit": "µM"}, {"measurement": "TGI", "setting": "SN12C renal", "result": "> 25", "unit": "µM"}, {"measurement": "GI50", "setting": "OVCAR-3 ovarian", "result": "> 25", "unit": "µM"}, {"measurement": "TGI", "setting": "OVCAR-3 ovarian", "result": "> 25", "unit": "µM"}, {"measurement": "GI50", "setting": "SF-268 CNS", "result": "> 25", "unit": "µM"}, {"measurement": "TGI", "setting": "SF-268 CNS", "result": "> 25", "unit": "µM"}, {"measurement": "GI50", "setting": "SF-295 CNS", "result": "> 25", "unit": "µM"}, {"measurement": "TGI", "setting": "SF-295 CNS", "result": "> 25", "unit": "µM"}, {"measurement": "GI50", "setting": "NCI-H23 lung", "result": "> 25", "unit": "µM"}, {"measurement": "TGI", "setting": "NCI-H23 lung", "result": "> 25", "unit": "µM"}, {"measurement": "GI50", "setting": "OVCAR-8 ovarian", "result": "> 25", "unit": "µM"}, {"measurement": "TGI", "setting": "OVCAR-8 ovarian", "result": "> 25", "unit": "µM"}, {"measurement": "GI50", "setting": "CCRF-CEM leukemia", "result": "> 25", "unit": "µM"}, {"measurement": "TGI", "setting": "CCRF-CEM leukemia", "result": "> 25", "unit": "µM"}, {"measurement": "GI50", "setting": "M14 melanoma", "result": "> 25", "unit": "µM"}, {"measurement": "TGI", "setting": "M14 melanoma", "result": "> 25", "unit": "µM"}]}]}
